Reference: PubChem BioAssay AID2060910 (Molecular Pharmacology Branch, DTP, NCI, 2025)

System: 242566-281-R-J2-PDC complex spheroid viability
Test: Anticancer human tumor 242566-281-R-J2-PDC patient-derived pancreatic carcinoma cell line growth inhibition [RAS]
Conditions: for viability, T/C: stronger effect = lower value
Excerpt: RAS pathway inhibitors in Combinations in Complex Spheroids
A high-throughput screen of multi-cell type tumor spheroids was designed to identify active combinations of RAS pathway inhibitors and targeted small molecules. Complex spheroids include a stromal component modeled by human endothelial cells (HUVEC) and fibroblasts modeled by human mesenchymal stem cells (MSCs). The concentration ranges selected for each drug and investigational agent were based upon clinically achievable concentrations if the clinical Cmax of the agent was known.
Compounds. The drugs and investigational agents: abemaciclib (NSC768073), cobimetinib (NSC768068), divarasib (GDC6063, NSC841802), docetaxel (NSC628503), GDC-1971 (RLY-1971, NSC841576), gemcitabine (NSC613327), inavolisib (NSC800729), ipatasertib (NSC767898), KB-0742 (NSC834161), MRTX-1133 (NSC836407), osimertinib (NSC779217), RMC-4630 (NSC839698), RMC-6236 (NSC851965), RMC-6291 (NSC852671), Ro-3306 (NSC812927), sapanisertib (NSC764658), SN-38 (NSC673596), staurosporine (NSC755774), SY5609 (NSC837396), and tovorafenib (DAY101, NSC766906), were obtained from the National Cancer Institute (NCI) Developmental Therapeutics Program Chemical Repository. The FDA-approved anticancer drug set is available from the NCI Developmental Therapeutics Program. […] The stock solutions were prepared in dimethyl sulfoxide (DMSO, Sigma-Aldrich, St. Louis, MO, cat. D2650) at 800-fold the tested concentration and stored at -70 degrees C prior to their use. All drugs and investigational agents were tested over a range starting from a high concentration at or near the clinical Cmax and decreasing in half-log increments. If the clinical Cmax for an agent had not been determined, the highest concentration tested was 10 microM.
Cell Culture. All cells were maintained in an incubator at 37 degrees C and 5% CO2 with 95% humidity. The PDC lines were cultured according to standard operating procedures established by the NCI PDMR. All PDCs were thawed and cultured in Matrigel-coated flasks prepared with a working solution of 1X Ham's F-12 nutrient mix, without supplementation (Invitrogen, Waltham, MA, cat. 11765054), 100 U/mL penicillin-streptomycin (Invitrogen, cat. 15140122), and 2.5% Matrigel (Corning Inc., Corning, NY, cat. 354248) for the first three passages. The 362531-283-R-J2-PDC and 782815-120-R-J1-PDC lines were cultured in 6C/Colon 1B media, which includes advanced DMEM/F-12 (Thermo Fisher Scientific, cat. 12634028), 10 mM HEPES (Thermo Fisher Scientific, cat. 15630080), 1X GlutaMAX supplement (Thermo Fisher Scientific, cat. 35050061), 0.1 mg/mL primocin (InvivoGen, San Diego, CA, cat. ant-pm-2), 10% defined fetal bovine serum, heat inactivated (HyClone Laboratories Inc., Logan, UT, cat. SH30070.03HI), 50% L-WRN conditioned media (ATCC, cat. CRL-3276), 1.25 mM N-Acetyl-L-cysteine (Sigma-Aldrich, cat. A9165), 10 mM nicotinamide (Sigma-Aldrich, cat. N0636), 1X B-27 supplement (Thermo Fisher Scientific, cat. 17504044), 1X N-2 supplement (Thermo Fisher Scientific, cat. 17502048), 50 ng/mL human EGF (Thermo Fisher Scientific, cat. PHG0311), and 10 microM Y-27632 dihydrochloride (Tocris Bioscience, cat. 1254). The K12877-001-R-J1-PDC line was cultured in 6I media, which includes all 6C/Colon 1B media plus 10 ng/mL human FGF-10 (PeproTech, cat. 100-26), 1 ng/mL human FGF-2 (PeproTech, cat. 100-18B), 1 µM prostaglandin E2 (Tocris Bioscience, cat. 2296), […] hydrocortisone (Sigma-Aldrich, cat. H4001), and […] bovine insulin (Sigma-Aldrich, cat. I6634). The K86415-001-R-J1-PDC line was cultured in 6D media, which includes all 6C/Colon 1B media components minus the L-WRN conditioned media. The 485176-168-R4-J1-PDC was cultured in PANC media, which includes all 6C/Colon 1B media plus 100 ng/mL human FGF-10 (PeproTech, cat. 100-26), 500 nM SB-431542 (Selleckchem, cat. S1067), and 10 nM gastrin (Tocris Bioscience, cat. 3006). […]

[1] = curve of first compound, second compound 0.000949 µM
[2] = curve of first compound, second compound 0.003 µM
[3] = curve of first compound, second compound 0.00949 µM
[4] = curve of first compound, second compound 0.03 µM
[5] = curve of first compound, second compound 0.0949 µM
[6] = curve of first compound, second compound 0.3 µM
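Also: spheroids exposed to compound for 7 days before readout.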
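For viability, T/C in this document: 100% = DMSO vehicle control wells.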

CC1(C)CCC(Nc2ncc(C(F)(F)F)c(-c3c[nH]c4c(P(C)(C)=O)c(C#N)ccc34)n2)CN1 (centres undefined) + CCn1c(-c2cccnc2C(C)OC)c2c3cc(ccc31)N1CCOC(CC(NC(=O)C(C(C)C)N(C)C(=O)C3(F)CCN(C(=O)C#CC(C)(C)N(C)C)CC3)C(=O)N3CCCC(N3)C(=O)OCC(C)(C)C2)C1
IC50 [1]: > 300 nM | IC50 [2]: > 300 nM | IC50 [3]: > 300 nM | IC50 [4]: > 300 nM | IC50 [5]: > 300 nM | IC50 [6]: > 300 nM | viability, T/C (second compound 0.000949 µM, first compound 0.000949 µM): 114% | viability, T/C (second compound 0.000949 µM, first compound 0.003 µM): 100% | viability, T/C (second compound 0.000949 µM, first compound 0.00949 µM): 77.1% | viability, T/C (second compound 0.000949 µM, first compound 0.03 µM): 97.6% | viability, T/C (second compound 0.000949 µM, first compound 0.0949 µM): 94% | viability, T/C (second compound 0.000949 µM, first compound 0.3 µM): 70.7% | viability, T/C (second compound 0.003 µM, first compound 0.000949 µM): 111% | viability, T/C (second compound 0.003 µM, first compound 0.003 µM): 86% | viability, T/C (second compound 0.003 µM, first compound 0.00949 µM): 82.8% | viability, T/C (second compound 0.003 µM, first compound 0.03 µM): 88.2% | viability, T/C (second compound 0.003 µM, first compound 0.0949 µM): 95.4% | viability, T/C (second compound 0.003 µM, first compound 0.3 µM): 73.6% | viability, T/C (second compound 0.00949 µM, first compound 0.000949 µM): 109% | viability, T/C (second compound 0.00949 µM, first compound 0.003 µM): 86.5% | viability, T/C (second compound 0.00949 µM, first compound 0.00949 µM): 92.3% | viability, T/C (second compound 0.00949 µM, first compound 0.03 µM): 90.7% | viability, T/C (second compound 0.00949 µM, first compound 0.0949 µM): 90.5% | viability, T/C (second compound 0.00949 µM, first compound 0.3 µM): 82.9% | viability, T/C (second compound 0.03 µM, first compound 0.000949 µM): 95.4% | viability, T/C (second compound 0.03 µM, first compound 0.003 µM): 103% | viability, T/C (second compound 0.03 µM, first compound 0.00949 µM): 96% | viability, T/C (second compound 0.03 µM, first compound 0.03 µM): 91.1% | viability, T/C (second compound 0.03 µM, first compound 0.0949 µM): 70.4% | viability, T/C (second compound 0.03 µM, first compound 0.3 µM): 93.4% | viability, T/C (second compound 0.0949 µM, first compound 0.000949 µM): 88.2% | viability, T/C (second compound 0.0949 µM, first compound 0.003 µM): 93.4% | viability, T/C (second compound 0.0949 µM, first compound 0.00949 µM): 90.3% | viability, T/C (second compound 0.0949 µM, first compound 0.03 µM): 84.8% | viability, T/C (second compound 0.0949 µM, first compound 0.0949 µM): 64.8% | viability, T/C (second compound 0.0949 µM, first compound 0.3 µM): 79.2% | viability, T/C (second compound 0.3 µM, first compound 0.000949 µM): 91% | viability, T/C (second compound 0.3 µM, first compound 0.003 µM): 83.9% | viability, T/C (second compound 0.3 µM, first compound 0.00949 µM): 75.2% | viability, T/C (second compound 0.3 µM, first compound 0.03 µM): 63.8% | viability, T/C (second compound 0.3 µM, first compound 0.0949 µM): 71.8% | viability, T/C (second compound 0.3 µM, first compound 0.3 µM): 79.8%

CC(Nc1ccc2c(c1)OCCn1cc(N3C(=O)OCC3C(F)F)nc1-2)C(N)=O (centres undefined) + CCn1c(-c2cc(N3CCN(C)CC3)cnc2C(C)OC)c2c3cc(ccc31)-c1csc(n1)CC(NC(=O)C1CC1C)C(=O)N1CCCC(N1)C(=O)OCC(C)(C)C2
IC50 [1]: 364 nM | IC50 [2]: 95.1 nM | IC50 [3]: < 31.6 nM | IC50 [4]: < 31.6 nM | IC50 [5]: < 31.6 nM | IC50 [6]: < 31.6 nM | viability, T/C (second compound 0.000949 µM, first compound 0.0316 µM): 85.8% | viability, T/C (second compound 0.000949 µM, first compound 0.1 µM): 85.2% | viability, T/C (second compound 0.000949 µM, first compound 0.316 µM): 39.8% | viability, T/C (second compound 0.000949 µM, first compound 1 µM): 39.1% | viability, T/C (second compound 0.000949 µM, first compound 3.16 µM): 26.5% | viability, T/C (second compound 0.000949 µM, first compound 10 µM): 11.5% | viability, T/C (second compound 0.003 µM, first compound 0.0316 µM): 70.6% | viability, T/C (second compound 0.003 µM, first compound 0.1 µM): 47.3% | viability, T/C (second compound 0.003 µM, first compound 0.316 µM): 32.9% | viability, T/C (second compound 0.003 µM, first compound 1 µM): 22.4% | viability, T/C (second compound 0.003 µM, first compound 3.16 µM): 14.5% | viability, T/C (second compound 0.003 µM, first compound 10 µM): 5.29% | viability, T/C (second compound 0.00949 µM, first compound 0.0316 µM): 40.7% | viability, T/C (second compound 0.00949 µM, first compound 0.1 µM): 25.1% | viability, T/C (second compound 0.00949 µM, first compound 0.316 µM): 18.2% | viability, T/C (second compound 0.00949 µM, first compound 1 µM): 11.3% | viability, T/C (second compound 0.00949 µM, first compound 3.16 µM): 4.65% | viability, T/C (second compound 0.00949 µM, first compound 10 µM): 3.19% | viability, T/C (second compound 0.03 µM, first compound 0.0316 µM): 26.4% | viability, T/C (second compound 0.03 µM, first compound 0.1 µM): 17.9% | viability, T/C (second compound 0.03 µM, first compound 0.316 µM): 10.6% | viability, T/C (second compound 0.03 µM, first compound 1 µM): 5.37% | viability, T/C (second compound 0.03 µM, first compound 3.16 µM): 1.87% | viability, T/C (second compound 0.03 µM, first compound 10 µM): 1.22% | viability, T/C (second compound 0.0949 µM, first compound 0.0316 µM): 16.7% | viability, T/C (second compound 0.0949 µM, first compound 0.1 µM): 11.5% | viability, T/C (second compound 0.0949 µM, first compound 0.316 µM): 7.81% | viability, T/C (second compound 0.0949 µM, first compound 1 µM): 3.68% | viability, T/C (second compound 0.0949 µM, first compound 3.16 µM): 1.35% | viability, T/C (second compound 0.0949 µM, first compound 10 µM): 0.91% | viability, T/C (second compound 0.3 µM, first compound 0.0316 µM): 16.5% | viability, T/C (second compound 0.3 µM, first compound 0.1 µM): 11.3% | viability, T/C (second compound 0.3 µM, first compound 0.316 µM): 5.47% | viability, T/C (second compound 0.3 µM, first compound 1 µM): 3.22% | viability, T/C (second compound 0.3 µM, first compound 3.16 µM): 1.55% | viability, T/C (second compound 0.3 µM, first compound 10 µM): 1.07%

C=CC(=O)Nc1cc(Nc2nccc(-c3cn(C)c4ccccc34)n2)c(OC)cc1N(C)CCN(C)C
viability, T/C (compound 0.00316 µM): 105% [middle of 4 runs] | viability, T/C (compound 0.01 µM): 101% [middle of 4 runs] | viability, T/C (compound 0.0316 µM): 90.5% [middle of 4 runs] | viability, T/C (compound 0.1 µM): 91.2% [middle of 4 runs] | IC50 (curve of compound): > 1000 nM
